Reference: ChEMBL document CHEMBL4699652, “Proline Hinged Amphipathic α-Helical Peptide Sensitizes Gram-Negative Bacteria to Various Gram-Positive Antibiotics” (J Med Chem, 2020)
Calls of active or inactive are those of the source. The calls are words filed in the database; no cut-off is given here.

Columns and labels:
Erythrocyte = assay: Hemolytic activity in human red blood cells assessed as induction of hemoglobin release incubated for 4 hrs by microplate reader based assay; format: cell-based
Escherichia coli [1] = assay: Antimicrobial activity against Escherichia coli ATCC 25922 assessed as inhibition of bacterial growth incubated for 18 hrs by CLSI based method; format: functional
Lipopolysaccharide (LPS) [2] = assay: Binding affinity to Escherichia coli LPS in POPE/POPG lipid layers containing wild-type LPS by SPR assay
Lipopolysaccharide (LPS) [3] = assay: Binding affinity to O-antigen-deficient Escherichia coli LPS in POPE/POPG lipid layers containing O-antigen-deficient LPS by SPR assay
Escherichia coli [4] = assay: Sensitization of linezolid-induced antimicrobial activity against Cst-resistant Escherichia coli isolates assessed as inhibition of bacterial growth at 8 ug/ml incubated for 18 hrs by CLSI based method; format: functional, organism-based; settings: dose 8.0 µg/ml
Escherichia coli [5] = assay: Sensitization of linezolid-induced antimicrobial activity against Escherichia coli ATCC 25922 infected in ICR CD1 mouse model of sepsis protection model assessed as increase in mouse survival at 30 mg/kg, ip q1h x 8 hrs for 7 days co-treated with 25 mg/kg, sc q4h x 8 hrs linezolid; format: functional, organism-based; settings: time 7.0 day
Escherichia coli [6] = assay: Binding affinity to outer membrane in POPE/POPG lipid layers containing LPS by SPR assay
Escherichia coli [7] = assay: Sensitization of rifampicin-induced antimicrobial activity against Escherichia coli ATCC 25922 infected in ICR CD1 mouse model of sepsis protection model assessed as increase in mouse survival at 30 mg/kg, ip q1h x 8 hrs for 7 days co-treated with 5 mg/kg, sc q4h x 8 hrs rifampicin; format: functional, organism-based; settings: time 7.0 day
Lipopolysaccharide (LPS) [8] = assay: Binding affinity to LPS in Escherichia coli D21f1 assessed as localization in membrane regions at 1 uM using TAMRA-labeled compound by confocal fluorescence microscopy
Cell membrane [9] = assay: Induction of membrane permeability in Escherichia coli assessed as increase in fine surface roughness at 25 uM by atomic force microscopy; format: subcellular
Lipopolysaccharide (LPS) [10] = assay: Binding affinity to LPS in Escherichia coli D21e7 assessed as localization in membrane regions at 1 uM using TAMRA-labeled compound by confocal fluorescence microscopy
Cell membrane [11] = assay: Induction of outer membrane re-arragenemnts in Escherichia coli ATCC 25922 incubated for 4 mins by NPN uptake assay; format: subcellular
Pseudomonas aeruginosa = assay: Antimicrobial activity against multidrug-resistant Pseudomonas aeruginosa infected in ICR CD1 mouse model of sepsis protection model assessed as increase in mouse survival at 40 mg/kg, sc QD; format: functional, organism-based
Escherichia coli [12] = assay: Antimicrobial activity against NDM-1 producing carbapenem-resistant Escherichia coli infected in ICR CD1 mouse model of sepsis protection model assessed as increase in mouse survival at 40 mg/kg, sc QD; format: functional, organism-based
Cell membrane [13] = assay: Induction of inner membrane permeability in Escherichia coli at 5 uM incubated for 1 hr by SYTOX Green-staining based flow cytometry analysis; format: subcellular
Cell membrane [14] = assay: Induction of cell membrane fluidity changes in Escherichia coli ATCC 25922 by Laurdan-dye based fluorescence assay; format: subcellular
Acinetobacter baumannii = assay: Sensitization of rifampicin-induced antimicrobial activity against Acinetobacter baumannii OXA infected in mouse skin infection model assessed as reduction in skin ulcer at 7.5 mg/kg, sc TID for 5 days co-treated with 20 ug/kg, sc rifampicin; format: functional, organism-based; settings: time 5.0 day
Escherichia coli [15] = assay: Binding affinity to inner membrane using POPE/POPG (7/3) by SPR assay
Escherichia coli [16] = assay: Sensitization of rifampicin-induced antimicrobial activity against Cst-resistant Escherichia coli isolates assessed as inhibition of bacterial growth at 8 ug/ml incubated for 18 hrs by CLSI based method; format: functional, organism-based; settings: dose 8.0 µg/ml
Escherichia coli [17] = assay: Sensitization of rifampicin-induced antimicrobial activity against Escherichia coli ATCC 25922 infected in ICR CD1 mouse neutropenic thigh infection model assessed as reduction in bacterial CFU at 240 mg/kg, ip q1h x 8 hrs co-treated with 20 mg/kg, sc q4h x 8 hrs rifampicin; format: functional, organism-based
[18] = Drug uptake in human HeLa cells at 1 uM incubated for 4 hrs using TAMRA-labeled compound; format: ADME, cell-based
Staphylococcus aureus = assay: Sensitization of rifampicin-induced antimicrobial activity against methicillin-resistant Staphylococcus aureus assessed as inhibition of bacterial growth at 8 ug/ml incubated for 18 hrs by CLSI based method; format: functional, organism-based; settings: dose 8.0 µg/ml
[19] = Induction of cell membrane permeability in POPE/POPG assessed as calcein leakage at 2 to 8 uM; settings: dose microM 2-8
Escherichia coli [20] = assay: Sensitization of rifampicin-induced antimicrobial activity against Escherichia coli ATCC 25922 infected in ICR CD1 mouse model of sepsis protection model assessed as mouse survival at 30 mg/kg, ip q1h x 8 hrs for 1 days co-treated with 5 mg/kg, sc q4h x 8 hrs rifampicin; format: functional; settings: ATCC 25922, 24 h, time 1 day
Cell membrane [21] = assay: Induction of outer membrane permeability in Escherichia coli assessed as periplasmic-beta-lactamase release at 5 uM using CENTA; format: subcellular
[22] = Drug uptake in Escherichia coli at 1 uM incubated for 4 hrs using TAMRA-labeled compound; format: ADME
Escherichia coli [23] = assay: Sensitization of colistin-induced antimicrobial activity against NDM-1 producing carbapenem-resistant Escherichia coli infected in ICR CD1 mouse model of sepsis protection model assessed as increase in mouse survival at 12.5 mg/kg, sc QD for 1 days co-treated with 40 mg/kg, sc QD colistin; format: functional; settings: time 1 day
[24] = Drug localization in membrane of Escherichia coli at 1 uM incubated for 4 hrs using TAMRA-labeled compound; format: ADME, cell membranes, Cell membrane
Lipopolysaccharide (LPS) [25] = assay: Binding affinity to inner core/lipid A region of LPS in Escherichia coli ATCC 25922 at 1.25 uM incubated for 10 mins by protein-retention expansion microscopy
Escherichia coli [26] = assay: Sensitization of linezolid-induced antimicrobial activity against Escherichia coli ATCC 25922 infected in ICR CD1 mouse model of sepsis protection model assessed as mouse survival at 30 mg/kg, ip q1h x 8 hrs for 1 days co-treated with 25 mg/kg, sc q4h x 8 hrs linezolid; format: functional; settings: ATCC 25922, 24 h, time 1 day
Cell membrane [27] = assay: Induction of cell membrane fluidity changes in Escherichia coli D21f2 by Laurdan-dye based fluorescence assay; format: subcellular
Escherichia coli [28] = assay: Antimicrobial activity against Escherichia coli ATCC 25922 assessed as reduction in cell viability at 10 to 10000 uM by propidium iodide staining based assay; format: functional, organism-based; settings: dose microM 10-10000
[29] = Drug localization in cytosol of Escherichia coli at 1 uM incubated for 4 hrs using TAMRA-labeled compound; format: ADME, subcellular
Cell membrane [30] = assay: Induction of inner membrane permeability in Escherichia coli assessed as cytoplasmic beta-galactosidase release at 5 uM using ONPG
Escherichia coli [31] = assay: Sensitization of linezolid-induced antimicrobial activity against Escherichia coli ATCC 25922 infected in ICR CD1 mouse neutropenic thigh infection model assessed as reduction in bacterial CFU at 150 mg/kg, ip q2h x 4 hrs co-treated with 150 mg/kg, sc q2h x 4 hrs linezolid; format: functional, organism-based
Escherichia coli [32] = assay: Induction of cell lysis in Escherichia coli at 5 uM by transmission electron microscopy; format: functional, organism-based

For Ac-KLLKLLKKPLKLLK-NH2, the HC10 (Erythrocyte) was over 1280 µM, the MIC (Escherichia coli [1]) was over 80 µM and the Activity (Lipopolysaccharide (LPS) [2]) was “Active”. For the same substance, the Activity (Lipopolysaccharide (LPS) [3]) was “Active”, the Activity (Escherichia coli [4]) was “Active” and the Activity (Escherichia coli [5]) was “Active”. The Activity (Escherichia coli [6]) was “inactive”, the Activity (Escherichia coli [7]) was “Active” and the Activity (Lipopolysaccharide (LPS) [8]) was “Active”. For the same substance, the Activity (Cell membrane [9]) was “Active”, the Activity (Lipopolysaccharide (LPS) [10]) was “Active” and the Activity (Cell membrane [11]) was “Active”. For the same substance, the Activity (Pseudomonas aeruginosa) was “inactive”, the Activity (Escherichia coli [12]) was “inactive” and the Activity (Cell membrane [13]) was “inactive”. The Activity (Cell membrane [14]) was “Dose-dependent effect”, the Activity (Acinetobacter baumannii) was “Active” and the Activity (Escherichia coli [15]) was “Active”. The Activity (Escherichia coli [16]) was “Active”, the Activity (Escherichia coli [17]) was “Active” and the Drug uptake [18] was “Not Active”. The Activity (Staphylococcus aureus) was “Active”, the Activity [19] was “inactive” and the survival at 30 mg/kg (Escherichia coli [20]) was 90%. For the same substance, the Activity (Cell membrane [21]) was “inactive”, the Drug uptake [22] was “Active” and the Activity (Escherichia coli [23]) was 75%. For the same substance, the Drug uptake [24] was “Active”, the Activity (Lipopolysaccharide (LPS) [25]) was “Active” and the survival at 30 mg/kg (Escherichia coli [26]) was 90%. The Activity (Cell membrane [27]) was “inactive”, the Activity (Escherichia coli [28]) was “inactive” and the Drug uptake [29] was “Not Active”. The Activity (Cell membrane [30]) was “inactive”, the Activity (Escherichia coli [31]) was “Active” and the Activity (Escherichia coli [32]) was “inactive”.
